The source of these data is US4103004A, “Cardiotonic agent” (University of Hawaii, priority 1977, dated 1978).

The test system of one series is isolated rat atria. The series is described as follows: Bioassay for positive inotropic effect on isolated rat atria. The format is cell-based. How it is done: Bioassay for Determining Positive Inotropic Effect
Bioassays of the solutions containing anthopleurin-C are performed on isolated atria of rat hearts. The atrium is separated from the rest of the heart and suspended in an isolated organ bath (20, 25, or 50 ml.) containing Krebs Ringer bicarbonate medium (pH 7.4) of the following composition in distilled deionized water (in mmoles): Na^+, 145; K^+, 6.02; Ca^+2, 1.22; Mg^+2, 1.33; Cl^-, 126; HCO3^-, 25.3; PO4^-3, 1.2; SO4^-2, 1.33; and glucose, 5.5. The temperature of the organ bath is maintained at 30° C., and the Krebs-Ringer medium is continuously aerated with 95% O2 --5% CO2.
The spontaneously beating atrial preparation is connected by a thin silk thread to a force-displacement transducer (Grass model FT.03), and the contractile movements are recorded on a six-channel polygraph Grass Model 7. The preparation is allowed to equilibrate under 750 mg. tension for 60 minutes prior to beginning an assay. After this equilibration, during which the preparations are washed out every 30 minutes, the spontaneous beat rate of the atria remains constant; the change during a 10-minute observation being less than 5 beats/min. The changes in contractile force and rate produced by the test solution containing anthopleurin-C is expressed as a percentage increase or decrease in tension and rhythm, with the period immediately preceding addition of test solution to the tissue bath as the baseline for comparison.

A further series is described as follows: Isoelectric focusing. The format is physicochemical. Particulars: doubly purified material. An excerpt: For the purpose of obtaining electrophoretic properties, the anthopleurin-Cobtained in Example 1, Steps a through d below, was rechromatographed on CM Sephadex C-25, and G-10 according to the process set forth in Example 1, Steps c, and d, respectively. The doubly purified material was subjected to electrophoretic analysis using commercially available pre-cast 12% acrylamide gels and matched buffer systems obtained from Bio·Rad Laboratories, 32nd and Griffin, Richmond, California.
Isoelectric focusing gave the isoelectric point at a pH = 8.0. Disc gel electrophoresis with 12% polyacrylamide gel at pH 3.6 gave an Rf value of 0.49 versus methyl green tracking dye. […] Sodium dodecyl sulfate (SDS) disc gel electrophoresis using a 10% gel indicated a m.w. of about 5,200 after incubation with dithioerythritol, using RNase A and pancreatic trypsin inhibitor (PTI) for comparison. The molecular weight is so low that these values are only approximate.

Series [1] is described as follows: Solubility in deionized water. In kind it is physicochemical.
The nature of series [2]: Stability at neutral and lower pH. The format is physicochemical. Particulars: neutral and lower pH values.

As for anthopleurin-C, the “potency relative to ouabain in positive inotropic effect” value with isolated rat atria (fold as potent as ouabain) was 200-1000 x. Moreover, in the series on isolated rat atria (isolated rat atria), the “ED50, positive inotropic effect” value stood at 3 nM and the chronotropic effect entry is “does not show any chronotropic effect”. In addition, the isoelectric point in the series “Isoelectric focusing” amounted to 8.0 pH. Also, the solubility result in series [1] is “very soluble”. For the same substance, the stability entry in series [2] was “relatively stable”.
